For 25 compounds, EC50 results are on record in patent US9303012B2, “Pyridine-2-amides useful as CB2 agonists” (Hoffmann-La Roche Inc., priority 2012, dated 2016).

By EC50 is commonly meant the concentration that produces a half-maximal response. The low end stands for an effect from little substance, the high end for a need for much substance.

Experiment [1] deals with human CB2 receptors (Homo sapiens (Human), UniProt P34972). In words: functional cAMP assay, CHO cells expressing human CB2 receptors. It is filed as cell-based. The procedure:
(§1) CHO cells expressing human CB1 or CB2 receptors are seeded 17-24 hours prior to the experiment 50.000 cells per well in a black 96 well plate with flat clear bottom (Corning Costar #3904) in DMEM (Invitrogen No. 31331), 1×HT supplement, with 10% fetal calf serum and incubated at 5% CO2 and 37° C. in a humidified incubator. The growth medium was exchanged with Krebs Ringer Bicarbonate buffer with 1 mM IBMX and incubated at 30° C. for 30 min. Compounds were added to a final assay volume of 100 μl and incubated for 30 min at 30° C. Using the cAMP-Nano-TRF detection kit the assay (Roche Diagnostics) was stopped by the addition of 50 μl lysis reagent (Tris, NaCl, 1.5% Triton X100, 2.5% NP40, 10% NaN3) and 50 μl detection solutions (20 μM mAb Alexa700-cAMP 1:1, and 48 μM Ruthenium-2-AHA-cAMP) and shaken for 2 h at room temperature. The time-resolved energy transfer is measured by a TRF reader (Evotec Technologies GmbH), equipped with a ND:YAG laser as excitation source. The plate is measured twice with the excitation at 355 nm and at the emission with a delay of 100 ns and a gate of 100 ns, total exposure time 10 s at 730 (bandwidth 30 nm) or 645 nm (bandwidth 75 nm), respectively. The FRET signal is calculated as follows: FRET=T730-Alexa730-P(T645-B645) with P=Ru730-B730/Ru645-B645, where T730 is the test well measured at 730 nM, T645 is the test well measured at 645 nm, B730 and B645 are the buffer controls at 730 nm and 645 nm, respectively. cAMP content is determined from the function of a standard curve spanning from 10 μM to 0.13 nM cAMP.
(§2) EC50 values were determined using Activity Base analysis (ID Business Solution, Limited). The EC50 values for a wide range of cannabinoid agonists generated from this assay were in agreement with the values published in the scientific literature.
A general note: Changes in cAMP serve as a functional read-out for many G protein-coupled receptors.

Experiment [2] addresses human CB1 receptors (Homo sapiens (Human), UniProt P21554). The experiment is described as follows: functional cAMP assay, CHO cells expressing human CB1 receptors. The class given is cell-based. The procedure: as §1, §2

Chain of human CB2 receptors (P34972 whole entry): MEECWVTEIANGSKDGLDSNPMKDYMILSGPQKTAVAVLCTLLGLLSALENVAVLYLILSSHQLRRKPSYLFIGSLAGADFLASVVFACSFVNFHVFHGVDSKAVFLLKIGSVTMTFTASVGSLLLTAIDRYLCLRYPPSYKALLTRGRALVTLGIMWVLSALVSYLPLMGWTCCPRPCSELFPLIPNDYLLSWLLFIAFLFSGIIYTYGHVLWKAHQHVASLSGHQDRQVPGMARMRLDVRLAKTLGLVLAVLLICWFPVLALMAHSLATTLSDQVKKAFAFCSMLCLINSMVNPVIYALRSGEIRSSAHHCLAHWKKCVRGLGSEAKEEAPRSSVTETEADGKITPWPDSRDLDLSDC
Chain of human CB1 receptors (P21554 whole entry): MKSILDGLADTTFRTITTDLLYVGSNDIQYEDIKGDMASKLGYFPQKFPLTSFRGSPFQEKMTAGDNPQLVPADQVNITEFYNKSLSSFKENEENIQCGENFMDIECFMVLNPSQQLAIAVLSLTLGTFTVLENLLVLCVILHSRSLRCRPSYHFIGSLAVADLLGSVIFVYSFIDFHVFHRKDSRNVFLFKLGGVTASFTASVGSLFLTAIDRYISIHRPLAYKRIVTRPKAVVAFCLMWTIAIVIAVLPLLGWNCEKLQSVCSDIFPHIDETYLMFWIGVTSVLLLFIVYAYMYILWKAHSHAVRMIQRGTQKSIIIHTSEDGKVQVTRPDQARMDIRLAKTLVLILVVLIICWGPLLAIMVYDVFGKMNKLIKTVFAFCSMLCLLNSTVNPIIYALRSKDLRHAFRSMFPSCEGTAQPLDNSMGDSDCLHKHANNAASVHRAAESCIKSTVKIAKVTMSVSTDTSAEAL

Turning to `CNC(=O)CN(C(=O)c1ccc(N2CC(F)(F)C2)c(OCC2CC2)n1)C(C)(C)C` [Example 26, 6-Cyclopropylmethoxy-5-(3,3-difluoro-azetidin-1-yl)-pyridine-2-carboxylic acid tert-butyl-methylcarbamoylmethyl-amide], the EC50 in experiment [1] was 306 nM; in experiment [2] it was more than 10000 nM.

For the compound `CN(C)C(=O)CN(C(=O)c1ccc(N2CC(F)(F)C2)c(OCC2CC2)n1)C(C)(C)C` [Example 27, 6-Cyclopropylmethoxy-5-(3,3-difluoro-azetidin-1-yl)-pyridine-2-carboxylic acid tert-butyl-dimethylcarbamoylmethyl-amide], the EC50 in experiment [1] was 774 nM; in experiment [2] it was more than 10000 nM.

`CC1(C)C(=O)NCCN1C(=O)c1ccc(N2CC(F)(F)C2)c(OCC2CC2)n1` [Example 28, 4-[6-Cyclopropylmethoxy-5-(3,3-difluoro-azetidin-1-yl)-pyridine-2-carbonyl]-3,3-dimethyl-piperazin-2-one]: the figures for the EC50 in experiment [1] and in experiment [2] were 414 nM and more than 10000 nM, respectively.

In the case of `CCC1(CC)C(=O)NCCN1C(=O)c1ccc(N2CC(F)(F)C2)c(OCC2CC2)n1` [Example 29, 4-[6-Cyclopropylmethoxy-5-(3,3-difluoro-azetidin-1-yl)-pyridine-2-carbonyl]-3,3-diethyl-piperazin-2-one], the figures for the EC50 in experiment [1] and in experiment [2] were 414 nM and more than 10000 nM, respectively.

Regarding `CC(C)CS(=O)(=O)c1nc(C(=O)N2CCCC2(C)C)ccc1C1CC1` [Example 30, [5-Cyclopropyl-6-(2-methyl-propane-1-sulfonyl)-pyridin-2-yl]-(2,2-dimethyl-pyrrolidin-1-yl)-methanone], the EC50 is 34.5 nM in experiment [1] and more than 10000 nM in experiment [2].

With `CC(C)CS(=O)(=O)c1nc(C(=O)N2COCC2(C)C)ccc1C1CC1` [Example 31, [5-Cyclopropyl-6-(2-methyl-propane-1-sulfonyl)-pyridin-2-yl]-(4,4-dimethyl-oxazolidin-3-yl)-methanone], the EC50 in experiment [1] is 82.1 nM; in experiment [2] it was more than 10000 nM.

Take `Cc1nc([C@H](CC2CC2)N(C)C(=O)c2ccc(N3CC(F)(F)C3)c(OCC3CC3)n2)no1` [Example 32, 6-Cyclopropylmethoxy-5-(3,3-difluoro-azetidin-1-yl)-pyridine-2-carboxylic acid [(S)-2-cyclopropyl-1-(5-methyl-[1,2,4]oxadiazol-3-yl)-ethyl]-methyl-amide]: the EC50 is 256 nM in experiment [1] and more than 10000 nM in experiment [2].

For the compound `Cc1nc(C(C2CC2)N(C)C(=O)c2ccc(C3CC3)c(OCC3CCOCC3)n2)no1` (centres unmarked) [Example 33, 5-Cyclopropyl-6-(tetrahydro-pyran-4-ylmethoxy)-pyridine-2-carboxylic acid [cyclopropyl-(5-methyl-[1,2,4]oxadiazol-3-yl)-methyl]-methyl-amide], the EC50 in experiment [1] is 55.4 nM; in experiment [2] it was more than 10000 nM.

As for `CC(C)C[C@H](c1cccnn1)N(C)C(=O)c1ccc(N2CC(F)(F)C2)c(OCC2CC2)n1` [Example 34, (+)-6-Cyclopropylmethoxy-5-(3,3-difluoro-azetidin-1-yl)-pyridine-2-carboxylic acid methyl-(3-methyl-1-pyridazin-3-yl-butyl)-amide], the EC50 in experiment [1] is 91.1 nM; in experiment [2], more than 10000 nM.

With `CC(C)(C)N(CC(N)=O)C(=O)c1ccc(N2CC(F)(F)C2)c(OCC2CC2)n1` [Example 35, 6-Cyclopropylmethoxy-5-(3,3-difluoro-azetidin-1-yl)-pyridine-2-carboxylic acid tert-butyl-carbamoylmethyl-amide], the half-maximal effective concentration (EC50) in experiment [1] was 183 nM; in experiment [2], more than 10000 nM.

As for `Cc1nnc(CN(C(=O)c2ccc(N3CC(F)(F)C3)c(OCC3CC3)n2)C(C)(C)C)o1` [Example 36, 6-Cyclopropylmethoxy-5-(3,3-difluoro-azetidin-1-yl)-pyridine-2-carboxylic acid tert-butyl-(5-methyl-[1,3,4]oxadiazol-2-ylmethyl)-amide], the concentration giving a half-maximal response (EC50) was 226 nM in experiment [1] and more than 10000 nM in experiment [2].

Turning to `CC1(O)CCN(C(=O)c2ccc(N3CC(F)(F)C3)c(OCC3CC3)n2)C1` (centres unmarked) [Example 37, [6-Cyclopropylmethoxy-5-(3,3-difluoro-azetidin-1-yl)-pyridin-2-yl]-(3-hydroxy-3-methyl-pyrrolidin-1-yl)-methanone], the values for the EC50 in experiment [1] and in experiment [2] were 364 nM and more than 10000 nM, respectively.

Turning to `O=C(c1ccc(N2CC(F)(F)C2)c(OCC2CC2)n1)N1CCCC12COC2` [Example 38, [6-Cyclopropylmethoxy-5-(3,3-difluoro-azetidin-1-yl)-pyridin-2-yl]-(2-oxa-5-aza-spiro[3.4]oct-5-yl)-methanone], the EC50 is 212 nM in experiment [1] and more than 10000 nM in experiment [2].

`CCN(CCOC)C(=O)c1ccc(N2CC(F)(F)C2)c(OCC2CC2)n1` [Example 39, 6-Cyclopropylmethoxy-5-(3,3-difluoro-azetidin-1-yl)-pyridine-2-carboxylic acid ethyl-(2-methoxy-ethyl)-amide]: the EC50 is 142 nM in experiment [1] and more than 10000 nM in experiment [2].

`Cn1nnnc1CN(C(=O)c1ccc(N2CC(F)(F)C2)c(OCC2CC2)n1)C(C)(C)C` [Example 40, 6-Cyclopropylmethoxy-5-(3,3-difluoro-azetidin-1-yl)-pyridine-2-carboxylic acid tert-butyl-(1-methyl-1H-tetrazol-5-ylmethyl)-amide]: the values for the EC50 in experiment [1] and in experiment [2] were 81.8 nM and more than 10000 nM, respectively.

As to `CC(=O)NC1CCN(C(=O)c2ccc(N3CC(F)(F)C3)c(OCC3CC3)n2)C1` (centres unmarked) [Example 41, N-{1-[6-Cyclopropylmethoxy-5-(3,3-difluoro-azetidin-1-yl)-pyridine-2-carbonyl]-pyrrolidin-3-yl}-acetamide], the EC50 in experiment [1] is 966 nM; in experiment [2], more than 10000 nM.

Take `CC1(C)CCN(C(=O)c2ccc(C3CC3)c(Cc3ccc(F)cc3)n2)CC1` [Example 42, [5-Cyclopropyl-6-(4-fluoro-benzyl)-pyridin-2-yl]-(4,4-dimethyl-piperidin-1-yl)-methanone]: the EC50 is 9 nM in experiment [1] and more than 10000 nM in experiment [2].

Turning to `CC1(C)CCN(C(=O)c2ccc(C3CC3)c(OCC3CCCO3)n2)CC1` (centres unmarked) [Example 43, [5-Cyclopropyl-6-(tetrahydro-furan-2-ylmethoxy)-pyridin-2-yl]-(4,4-dimethyl-piperidin-1-yl)-methanone], the values for the EC50 in experiment [1] and in experiment [2] were 34.9 nM and more than 10000 nM, respectively.

Regarding `CC1(C)COCN1C(=O)c1ccc(C2CC2)c(Cc2ccc(F)cc2)n1` [Example 44, [5-Cyclopropyl-6-(4-fluoro-benzyl)-pyridin-2-yl]-(4,4-dimethyl-oxazolidin-3-yl)-methanone], the values for the EC50 in experiment [1] and in experiment [2] were 3.1 nM and 408 nM, respectively.

Consider `CC1(C)C[C@@H]2C[C@@](C)(CN2C(=O)c2ccc(N3CC(F)(F)C3)c(OCC3CC3)n2)C1` [Example 45, [6-Cyclopropylmethoxy-5-(3,3-difluoro-azetidin-1-yl)-pyridin-2-yl]-((1S,5R)-1,3,3-trimethyl-6-aza-bicyclo[3.2.1]oct-6-yl)-methanone], for which the values for the EC50 in experiment [1] and in experiment [2] were 6.8 nM and more than 10000 nM, respectively.

`COC[C@H]1CCCN1C(=O)c1ccc(N2CC(F)(F)C2)c(OCC2CC2)n1` [Example 46, [6-Cyclopropylmethoxy-5-(3,3-difluoro-azetidin-1-yl)-pyridin-2-yl]-((R)-2-methoxymethyl-pyrrolidin-1-yl)-methanone]: the EC50 in experiment [1] was 360 nM; in experiment [2] it was more than 10000 nM.

For the compound `CC1(C)CCCN1C(=O)c1ccc(OCC2CC2)c(Cl)n1` [Example 47, (6-Chloro-5-cyclopropylmethoxy-pyridin-2-yl)-(2,2-dimethyl-pyrrolidin-1-yl)-methanone], the EC50 in experiment [1] was 113 nM; in experiment [2], more than 10000 nM.

As to `CC1(C)COCN1C(=O)c1ccc(OC(F)(F)F)c(OCC2CC2)n1` [Example 48, (6-Cyclopropylmethoxy-5-trifluoromethoxy-pyridin-2-yl)-(4,4-dimethyl-oxazolidin-3-yl)-methanone], the EC50 was 108 nM in experiment [1] and more than 10000 nM in experiment [2].

For the compound `CC1(C)COCN1C(=O)c1ccc(OCC2CC2)c(Cl)n1` [Example 49, (6-Chloro-5-cyclopropylmethoxy-pyridin-2-yl)-(4,4-dimethyl-oxazolidin-3-yl)-methanone], the concentration giving a half-maximal response (EC50) in experiment [1] was 139 nM; in experiment [2] it was more than 10000 nM.

On to `CC(=O)N1CCC(N(C(=O)c2ccc(N3CC(F)(F)C3)c(OCC3CC3)n2)C2CC2)CC1` [Example 50, 6-Cyclopropylmethoxy-5-(3,3-difluoro-azetidin-1-yl)-pyridine-2-carboxylic acid (1-acetyl-piperidin-4-yl)-cyclopropyl-amide], for which the EC50 was 237 nM in experiment [1] and more than 10000 nM in experiment [2].
